Experimental data from ChEMBL document CHEMBL1201861, “Genomics of Drug Sensitity in Cancer screening data, Wellcome Trust Sanger Institute”.

Columns and labels:
CHP-126 = assay: cells; assay type: functional, cell-based, Homo sapiens; conditions: Homo sapiens, CHP-126
Description: SANGER: Inhibition of human CHP-126 cell growth in a cell viability assay.

U-698-M = assay: cells; assay type: functional, cell-based, Homo sapiens; conditions: Homo sapiens, U-698-M
Description: SANGER: Inhibition of human U-698-M cell growth in a cell viability assay.

NCCIT = assay: SANGER: Inhibition of human NCCIT cell growth in a cell viability assay.; assay type: functional, cell-based; conditions: Homo sapiens, NCCIT
NCI-H719 = assay: cells; assay type: functional, cell-based, Homo sapiens; conditions: Homo sapiens, NCI-H719;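 further: growth inhibition of the cultured cell line, read out with a viability assay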
Description: SANGER: Inhibition of human NCI-H719 cell growth in a cell viability assay.

MFE-280 = assay: cells; assay type: functional, cell-based; conditions: Homo sapiens;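 further: growth inhibition of MFE-280 cells, determined with a cell viability readout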
Description: SANGER: Inhibition of human MFE-280 cell growth in a cell viability assay.

IGR-1 = assay: cells; assay type: functional, cell-based; conditions: Homo sapiens;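 further: growth inhibition of human IGR-1 cells, read out with a cell viability assay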
Description: SANGER: Inhibition of human IGR-1 cell growth in a cell viability assay.

SIMA = assay: cells; assay type: functional, cell-based, Homo sapiens; conditions: Homo sapiens, SIMA;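 further: growth inhibition of SIMA cells, measured with a cell viability readout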
Description: SANGER: Inhibition of human SIMA cell growth in a cell viability assay.

NB1 = assay: cells; assay type: functional, cell-based, Homo sapiens; conditions: Homo sapiens, NB1;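 further: reduction of NB1 cell proliferation, read out with a viability assay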
Description: SANGER: Inhibition of human NB1 cell growth in a cell viability assay.

PA-1 = assay: cells; assay type: functional, cell-based; conditions: Homo sapiens;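 further: IC50 for suppression of PA-1 cell proliferation, determined with a cell viability read-out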
Description: SANGER: Inhibition of human PA-1 cell growth in a cell viability assay.

MHH-CALL-2 = assay: cells; assay type: functional, cell-based, Homo sapiens; conditions: Homo sapiens, MHH-CALL-2;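 further: growth inhibition of the cell line, read out in a cell viability assay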
Description: SANGER: Inhibition of human MHH-CALL-2 cell growth in a cell viability assay.

NCI-H520 = assay: cells; assay type: functional, cell-based; conditions: Homo sapiens;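 further: growth inhibition of NCI-H520 cells, measured by a cell viability assay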
Description: SANGER: Inhibition of human NCI-H520 cell growth in a cell viability assay.

BL-70 = assay: SANGER: Inhibition of human BL-70 cell growth in a cell viability assay.; assay type: functional, cell-based; conditions: Homo sapiens, BL-70
EHEB = assay: cells; assay type: functional, cell-based; conditions: Homo sapiens;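 further: growth inhibition of human EHEB cells, read out with a cell viability assay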
Description: SANGER: Inhibition of human EHEB cell growth in a cell viability assay.

UACC-812 = assay: cells; assay type: functional, cell-based; conditions: Homo sapiens
Description: SANGER: Inhibition of human UACC-812 cell growth in a cell viability assay.

SW1710 = assay: cells; assay type: functional, cell-based; conditions: Homo sapiens;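 further: growth inhibition of SW1710 cells, determined with a cell viability assay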
Description: SANGER: Inhibition of human SW1710 cell growth in a cell viability assay.

CAL-51 = assay: cells; assay type: functional, cell-based; conditions: Homo sapiens;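 further: human CAL-51 cell line, growth inhibition read out via a cell viability assay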
Description: SANGER: Inhibition of human CAL-51 cell growth in a cell viability assay.

KYSE-410 = assay: cells; assay type: functional, cell-based; conditions: Homo sapiens;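 further: growth inhibition of KYSE-410 cells, measured through a cell viability readout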
Description: SANGER: Inhibition of human KYSE-410 cell growth in a cell viability assay.

SW1573 = assay: cells; assay type: functional, cell-based; conditions: Homo sapiens;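 further: growth inhibition of SW1573 cells, read out with a cell viability assay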
Description: SANGER: Inhibition of human SW1573 cell growth in a cell viability assay.

MDA-MB-157 = assay: cells; assay type: functional, cell-based; conditions: Homo sapiens
Description: SANGER: Inhibition of human MDA-MB-157 cell growth in a cell viability assay.

COLO-741 = assay: cells; assay type: functional, cell-based; conditions: Homo sapiens
Description: SANGER: Inhibition of human COLO-741 cell growth in a cell viability assay.

SR = assay: cells; assay type: functional, cell-based, Homo sapiens; conditions: Homo sapiens, SR
Description: SANGER: Inhibition of human SR cell growth in a cell viability assay.

COR-L279 = assay: SANGER: Inhibition of human COR-L279 cell growth in a cell viability assay.; assay type: functional, cell-based; conditions: Homo sapiens, COR-L279
SCC-4 = assay: cells; assay type: functional, cell-based; conditions: Homo sapiens;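 further: growth inhibition of human SCC-4 cells, read out as cell viability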
Description: SANGER: Inhibition of human SCC-4 cell growth in a cell viability assay.

CHL-1 = assay: cells; assay type: functional, cell-based; conditions: Homo sapiens;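 further: cell growth inhibition, read out with a cell viability assay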
Description: SANGER: Inhibition of human CHL-1 cell growth in a cell viability assay.

NCI-H441 = assay: cells; assay type: functional, cell-based; conditions: Homo sapiens;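 further: growth inhibition of NCI-H441 cells, read out with a cell viability assay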
Description: SANGER: Inhibition of human NCI-H441 cell growth in a cell viability assay.

SK-MES-1 = assay: cells; assay type: functional, cell-based; conditions: Homo sapiens;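 further: growth inhibition of human SK-MES-1 cells, read out with a cell viability assay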
Description: SANGER: Inhibition of human SK-MES-1 cell growth in a cell viability assay.

YKG-1 = assay: cells; assay type: functional, cell-based; conditions: Homo sapiens;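 further: cell growth inhibition, read out with a viability assay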
Description: SANGER: Inhibition of human YKG-1 cell growth in a cell viability assay.

DU-145 = assay: cells; assay type: functional, cell-based; conditions: Homo sapiens
Description: SANGER: Inhibition of human DU-145 cell growth in a cell viability assay.

PANC-03-27 = assay: cells; assay type: functional, cell-based; conditions: Homo sapiens
Description: SANGER: Inhibition of human PANC-03-27 cell growth in a cell viability assay.

CAL-39 = assay: cells; assay type: functional, cell-based; conditions: Homo sapiens;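 further: cell viability assay measuring growth inhibition of CAL-39 cells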
Description: SANGER: Inhibition of human CAL-39 cell growth in a cell viability assay.

A2058 = assay: cells; assay type: functional, cell-based; conditions: Homo sapiens;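 further: reduction of A2058 cell growth, read out with a viability assay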
Description: SANGER: Inhibition of human A2058 cell growth in a cell viability assay.

CP66-MEL = assay: cells; assay type: functional, cell-based; conditions: Homo sapiens;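 further: growth inhibition of CP66-MEL cells determined in a cell viability assay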
Description: SANGER: Inhibition of human CP66-MEL cell growth in a cell viability assay.

BHT-101 = assay: cells; assay type: functional, cell-based; conditions: Homo sapiens
Description: SANGER: Inhibition of human BHT-101 cell growth in a cell viability assay.

HCT-15 = assay: cells; assay type: functional, cell-based; conditions: Homo sapiens;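 further: cell viability readout, IC50 reflecting suppression of HCT-15 cell growth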
Description: SANGER: Inhibition of human HCT-15 cell growth in a cell viability assay.

SNU-449 = assay: cells; assay type: functional, cell-based; conditions: Homo sapiens
Description: SANGER: Inhibition of human SNU-449 cell growth in a cell viability assay.

COLO-679 = assay: cells; assay type: functional, cell-based; conditions: Homo sapiens
Description: SANGER: Inhibition of human COLO-679 cell growth in a cell viability assay.

BEN = assay: cells; assay type: functional, cell-based; conditions: Homo sapiens;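 further: growth inhibition of the BEN cell line, read out with a cell viability assay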
Description: SANGER: Inhibition of human BEN cell growth in a cell viability assay.

NCI-H596 = assay: cells; assay type: functional, cell-based; conditions: Homo sapiens;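 further: growth inhibition of NCI-H596 cells, read out with a cell viability assay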
Description: SANGER: Inhibition of human NCI-H596 cell growth in a cell viability assay.

NCI-H1694 = assay: cells; assay type: functional, cell-based, Homo sapiens; conditions: Homo sapiens, NCI-H1694;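 further: cell viability assay measuring inhibition of growth in human NCI-H1694 cells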
Description: SANGER: Inhibition of human NCI-H1694 cell growth in a cell viability assay.

D-542MG = assay: cells; assay type: functional, cell-based; conditions: Homo sapiens
Description: SANGER: Inhibition of human D-542MG cell growth in a cell viability assay.

OVCAR-3 = assay: cells; assay type: functional, cell-based; conditions: Homo sapiens;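 further: growth inhibition of human OVCAR-3 cells, determined by a cell viability assay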
Description: SANGER: Inhibition of human OVCAR-3 cell growth in a cell viability assay.

NCI-H2347 = assay: cells; assay type: functional, cell-based; conditions: Homo sapiens;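 further: growth inhibition of the cell line, read out with a cell viability assay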
Description: SANGER: Inhibition of human NCI-H2347 cell growth in a cell viability assay.

SK-OV-3 = assay: cells; assay type: functional, cell-based; conditions: Homo sapiens;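 further: growth inhibition of SK-OV-3 human cells, read out with a cell viability assay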
Description: SANGER: Inhibition of human SK-OV-3 cell growth in a cell viability assay.

NCI-H510A = assay: cells; assay type: functional, cell-based, Homo sapiens; conditions: Homo sapiens, NCI-H510A;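 further: growth inhibition of NCI-H510A cells, read out with a cell viability assay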
Description: SANGER: Inhibition of human NCI-H510A cell growth in a cell viability assay.

RPMI-6666 = assay: cells; assay type: functional, cell-based, Homo sapiens; conditions: Homo sapiens, RPMI-6666
Description: SANGER: Inhibition of human RPMI-6666 cell growth in a cell viability assay.

OE19 = assay: cells; assay type: functional, cell-based; conditions: Homo sapiens;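 further: growth inhibition of OE19 cells, measured through a cell viability read-out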
Description: SANGER: Inhibition of human OE19 cell growth in a cell viability assay.

C32 = assay: cells; assay type: functional, cell-based; conditions: Homo sapiens;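 further: cell viability assay, with IC50 reflecting inhibition of C32 cell growth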
Description: SANGER: Inhibition of human C32 cell growth in a cell viability assay.

MRK-nu-1 = assay: cells; assay type: functional, cell-based, Homo sapiens; conditions: Homo sapiens, MRK-nu-1;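 further: cell viability assay measuring growth suppression of human MRK-nu-1 cells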
Description: SANGER: Inhibition of human MRK-nu-1 cell growth in a cell viability assay.

GMS-10 = assay: cells; assay type: functional, cell-based; conditions: Homo sapiens;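 further: growth inhibition of GMS-10 cells, read out as cell viability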
Description: SANGER: Inhibition of human GMS-10 cell growth in a cell viability assay.

RT-112 = assay: cells; assay type: functional, cell-based; conditions: Homo sapiens
Description: SANGER: Inhibition of human RT-112 cell growth in a cell viability assay.

GP5d = assay: cells; assay type: functional, cell-based; conditions: Homo sapiens;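 further: growth inhibition of human GP5d cells, read out with a cell viability assay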
Description: SANGER: Inhibition of human GP5d cell growth in a cell viability assay.

UO-31 = assay: cells; assay type: functional, cell-based; conditions: Homo sapiens
Description: SANGER: Inhibition of human U031 cell growth in a cell viability assay.

MC-CAR = assay: cells; assay type: functional, cell-based, Homo sapiens; conditions: Homo sapiens, MC-CAR;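 further: growth inhibition of the human MC-CAR cell line, read out by a cell viability assay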
Description: SANGER: Inhibition of human MC-CAR cell growth in a cell viability assay.

RCM-1 = assay: cells; assay type: functional, cell-based; conditions: Homo sapiens;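 further: growth inhibition of the RCM-1 line, determined with a cell viability readout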
Description: SANGER: Inhibition of human RCM-1 cell growth in a cell viability assay.

IST-SL2 = assay: cells; assay type: functional, cell-based, Homo sapiens; conditions: Homo sapiens, IST-SL2;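 further: growth inhibition of human IST-SL2 cells, read out by a cell viability assay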
Description: SANGER: Inhibition of human IST-SL2 cell growth in a cell viability assay.

Work on `COc1ccc(-c2cc3nccn3c(Nc3ncccc3C(N)=O)n2)cc1OC` yielded an IC50 (CHP-126) of 6.5 µM, an IC50 (U-698-M) of 1.02 µM and an IC50 (NCCIT) of 2.36 µM. For the same compound, the IC50 (NCI-H719) was greater than 8 µM, the IC50 (MFE-280) was greater than 8 µM and the IC50 (IGR-1) was 6.54 µM. It also gave an IC50 (SIMA) of 7.18 µM, an IC50 (NB1) of 1.71 µM and an IC50 (PA-1) of 1.01 µM. For the same compound, the IC50 (MHH-CALL-2) was greater than 8 µM, the IC50 (NCI-H520) was greater than 8 µM and the IC50 (BL-70) was 0.671 µM. The IC50 (EHEB) was 3.79 µM, the IC50 (UACC-812) was greater than 8 µM and the IC50 (SW1710) was 1.66 µM. It also gave an IC50 (CAL-51) of 3.02 µM, an IC50 (KYSE-410) of 7.22 µM and an IC50 (SW1573) greater than 8 µM. The IC50 (MDA-MB-157) was greater than 8 µM, the IC50 (COLO-741) was greater than 8 µM and the IC50 (SR) was 0.548 µM. It also gave an IC50 (COR-L279) of 4.2 µM, an IC50 (SCC-4) greater than 8 µM and an IC50 (CHL-1) of 4.05 µM. It also gave an IC50 (NCI-H441) of 5.65 µM, an IC50 (SK-MES-1) of 1.81 µM and an IC50 (YKG-1) of 2.65 µM. It also gave an IC50 (DU-145) of 7.97 µM, an IC50 (PANC-03-27) of 5.56 µM and an IC50 (CAL-39) of 3.57 µM. The IC50 (A2058) was greater than 8 µM, the IC50 (CP66-MEL) was greater than 8 µM and the IC50 (BHT-101) was greater than 8 µM. It also gave an IC50 (HCT-15) of 6.64 µM, an IC50 (SNU-449) greater than 8 µM and an IC50 (COLO-679) greater than 8 µM. The IC50 (BEN) was greater than 8 µM, the IC50 (NCI-H596) was greater than 8 µM and the IC50 (NCI-H1694) was greater than 8 µM. For the same compound, the IC50 (D-542MG) was greater than 8 µM, the IC50 (OVCAR-3) was greater than 8 µM and the IC50 (NCI-H2347) was greater than 8 µM. It also gave an IC50 (SK-OV-3) greater than 8 µM, an IC50 (NCI-H510A) greater than 8 µM and an IC50 (RPMI-6666) of 1.44 µM. It also gave an IC50 (OE19) greater than 8 µM, an IC50 (C32) greater than 8 µM and an IC50 (MRK-nu-1) of 2.91 µM. For the same compound, the IC50 (GMS-10) was greater than 8 µM, the IC50 (RT-112) was greater than 8 µM and the IC50 (GP5d) was greater than 8 µM. For the same compound, the IC50 (UO-31) was 6.71 µM, the IC50 (MC-CAR) was 1.14 µM and the IC50 (RCM-1) was greater than 8 µM. The IC50 (IST-SL2) was 1.07 µM.

`OC[C@H](Cc1ccccc1)Nc1nc(Oc2ccc3c(c2)CCC3)nc2c1ncn2Cc1ccc(-c2ccccc2)cc1` showed an IC50 (CHP-126) greater than 10.2 µM, an IC50 (U-698-M) greater than 10.2 µM and an IC50 (NCCIT) greater than 10.2 µM. The IC50 (NCI-H719) was greater than 10.2 µM, the IC50 (MFE-280) was greater than 10.2 µM and the IC50 (IGR-1) was greater than 10.2 µM. The IC50 (SIMA) was greater than 10.2 µM, the IC50 (NB1) was 9.3 µM and the IC50 (PA-1) was greater than 10.2 µM. It also gave an IC50 (MHH-CALL-2) greater than 10.2 µM, an IC50 (NCI-H520) greater than 10.2 µM and an IC50 (BL-70) of 4.13 µM. It also gave an IC50 (EHEB) greater than 10.2 µM, an IC50 (UACC-812) greater than 10.2 µM and an IC50 (SW1710) of 1.43 µM. It also gave an IC50 (CAL-51) of 2.23 µM, an IC50 (KYSE-410) of 6.97 µM and an IC50 (SW1573) greater than 10.2 µM. The IC50 (MDA-MB-157) was greater than 10.2 µM, the IC50 (COLO-741) was greater than 10.2 µM and the IC50 (SR) was greater than 10.2 µM. The IC50 (COR-L279) was greater than 10.2 µM, the IC50 (SCC-4) was greater than 10.2 µM and the IC50 (CHL-1) was greater than 10.2 µM. For the same compound, the IC50 (NCI-H441) was greater than 10.2 µM, the IC50 (SK-MES-1) was 8.44 µM and the IC50 (YKG-1) was 7.11 µM. It also gave an IC50 (DU-145) of 7.86 µM, an IC50 (PANC-03-27) of 7.89 µM and an IC50 (CAL-39) greater than 10.2 µM. It also gave an IC50 (A2058) greater than 10.2 µM, an IC50 (CP66-MEL) greater than 10.2 µM and an IC50 (BHT-101) greater than 10.2 µM. For the same compound, the IC50 (HCT-15) was 2.49 µM, the IC50 (SNU-449) was 1.09 µM and the IC50 (COLO-679) was 2.66 µM. The IC50 (BEN) was greater than 10.2 µM, the IC50 (NCI-H596) was greater than 10.2 µM and the IC50 (NCI-H1694) was greater than 10.2 µM. For the same compound, the IC50 (D-542MG) was greater than 10.2 µM, the IC50 (OVCAR-3) was greater than 10.2 µM and the IC50 (NCI-H2347) was greater than 10.2 µM. It also gave an IC50 (SK-OV-3) greater than 10.2 µM, an IC50 (NCI-H510A) greater than 10.2 µM and an IC50 (RPMI-6666) greater than 10.2 µM. For the same compound, the IC50 (OE19) was greater than 10.2 µM, the IC50 (C32) was greater than 10.2 µM and the IC50 (MRK-nu-1) was greater than 10.2 µM. For the same compound, the IC50 (GMS-10) was greater than 10.2 µM, the IC50 (RT-112) was greater than 10.2 µM and the IC50 (GP5d) was greater than 10.2 µM. For the same compound, the IC50 (UO-31) was greater than 10.2 µM, the IC50 (MC-CAR) was greater than 10.2 µM and the IC50 (RCM-1) was greater than 10.2 µM. It also gave an IC50 (IST-SL2) greater than 10.2 µM.
